This is an account of results in PubChem BioAssay (NCI).

What all share (assay): NCI tumour cell line growth inhibition, 48 h
For assay [1], the system named is DMS 273 small cell lung.
The subject of assay [2] is UACC-62 melanoma.
Assay [3] relates to M14 melanoma.
The subject of assay [4] is LOX IMVI melanoma.
Assay [5] relates to DLD-1 colon.
In assay [6] the test system is NCI-H226 lung.
The test system of assay [7] is OVCAR-8 ovarian.
The subject of assay [8] is M19-MEL melanoma.
The test system of assay [9] is TK-10 renal.
In assay [10] the test system is RPMI-8226 leukemia.

Where “and” joins values, the source holds several entries; their conditions need not be identical. Equal values may be shown once.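 A five-concentration, 48-hour dose response in 96-well plates underlies each endpoint, interpolated linearly between surrounding concentrations. The concentration for 50% growth inhibition is given as GI50. TGI: total growth inhibition.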

For the compound `COc1ccc(N=c2ssc3c(=S)ssc23)cc1`, the TGI in assay [1] was 74.4 µM; in assay [2], 61.8 µM; in [3] it was 48.6 µM; in [4] it was 34.1 µM; in assay [5] it was 54.5 µM; in [6], over 100 µM. Moreover, the TGI in [7] was 43.9 µM; in assay [8], over 100 µM; in assay [9], over 100 µM; in assay [10] it was 38.3 µM.
As to `c1ccc(SC(CCCCC(Sc2ccccc2)Sc2ccccc2)Sc2ccccc2)cc1`, the TGI in [1], in [2], in assay [3], in assay [4], in assay [5] and in [7] was over 100 µM in each case. The TGI in [8], in assay [9] and in assay [10] was over 100 µM in each case.
As to `CCCCNCC(=O)O[C@]1(CC)C(=O)OCc2c1cc1n(c2=O)Cc2cc3ccccc3nc2-1`, the TGI in assay [1] is 0.236 µM; in [2], 0.925 µM; in assay [3], 7.23 µM; in assay [4] it was 1.43 µM; in assay [5] it was over 100 µM; in assay [6] it was 2.06 µM. The TGI in [8] is 6.21 µM; in [9] it was over 96.5 µM; in [10], 5.77 µM.
On to `Cn1cnc2nc(Cl)nc(NC(C)(C)C(C)(C)O)c21`, for which the TGI in assay [1], in assay [2], in assay [3], in assay [5], in [6] and in [7] was over 100 µM each time. Also, the TGI in assay [9] and in assay [10] was over 100 µM each time.
In the case of `C=CCc1cc(OC)c2c(c1)C(O)CC(c1ccccc1)O2` (stereo not given), the TGI in [1], in [2], in [3], in assay [5], in [6] and in assay [7] was over 100 µM throughout. Besides, the TGI in [8] and in assay [9] was over 100 µM throughout.
As to `CCOC(=O)C(C)(c1cn(C)c2ccccc12)c1cn(C)c2ccccc12`, the TGI in assay [1], in [2], in [3], in assay [5], in [6] and in assay [7] was over 100 µM each time. Moreover, the TGI in [8], in assay [9] and in assay [10] was over 100 µM each time.
Take `C[C@]12CCC3[C@@H](CC[C@@H]4c5nonc5CC[C@]34C)C1CCC(=O)N2` (stereo not given in full): the TGI in assay [1], in [2], in assay [3], in assay [4], in assay [6] and in [7] was over 100 µM in each case. Further, the TGI in [8], in [9] and in [10] was over 100 µM throughout. Also, the GI50 in assay [2] is over 84 µM.
For `Brc1cccc(C2SCc3nc4ccccc4n32)c1` (stereo not given), the TGI amounted to 31 µM in [2]; 53.1 µM in assay [3]; 28.6 µM in assay [4]; 29.9 µM in assay [5]; 27 µM in assay [6]; 60.7 µM in assay [7]. Moreover, the TGI in assay [8] is 49.1 µM; in assay [9], 65.1 µM; in [10], over 100 µM.
Regarding `CSCC1CC(c2ccc(Cl)cc2)=NO1` (stereo not given), the TGI in assay [1], in assay [2], in assay [3], in [5], in assay [6] and in [7] was over 100 µM in each case. Besides, the TGI in assay [8], in assay [9] and in assay [10] was over 100 µM in each case.
Consider `CCCCCCc1cc(C(=O)Nc2cccc(C(F)(F)F)c2)nc(N)n1`, for which the TGI in assay [1], in [2], in [3], in assay [4], in assay [5] and in assay [6] was over 100 µM throughout. Besides, the TGI in assay [8], in [9] and in [10] was over 100 µM each time.
Take `CC(=O)OC1CCn2nnc(CO[Si](C)(C)C(C)(C)C)c21` (stereo not given): the TGI in assay [1], in [3], in assay [5], in assay [6], in assay [7] and in assay [9] was over 100 µM each time. The compound further had a TGI in assay [10] of over 100 µM.
For `O=C1OC(CCCl)(c2ccccc2)CC1CN1CCOCC1` (stereo not given), the TGI in assay [2] came to 49.4 µM; in assay [3], 57.1 µM; in assay [4], 83.1 µM; in assay [5], 34 µM; in [6], 28 µM; in assay [7], 38.5 µM. The TGI in assay [8] was 45.6 µM; in assay [9] it was 30.5 µM; in [10], 27.9 µM.
For `O=C(O)C1(P(=O)(O)O)CC1`, the TGI in assay [1] is over 100 µM; in [2] it was over 100 µM; in assay [3], 76.4 µM; in assay [5] it was over 100 µM; in assay [7] it was over 100 µM; in assay [8], over 100 µM. Further, the TGI in assay [9] and in [10] was over 100 µM each time.
Consider `Cc1ccc(C(=O)Nc2ccc(CN3CCN(C)CC3)c(C(F)(F)F)c2)cc1C#Cc1cnc2cccnn12`, for which the GI50 in [2] was 0.306 µM and 1.06 µM; in [3] it was 0.162 µM and 0.351 µM; in assay [4], 0.178 µM and 0.336 µM; in assay [6], 0.298 µM; in [7], 0.367 µM and 1.08 µM; in [9], 0.419 µM and 0.649 µM. Moreover, the GI50 in assay [10] was 0.627 µM and 1.15 µM. For the same compound, the TGI in [2] is 1.52 µM; in assay [3], 0.737 µM and 3.42 µM; in [4] it was 0.973 µM and 1.16 µM; in assay [6] it was 4.41 µM; in assay [7] it was 1.46 µM and 3.75 µM; in [9] it was 1.37 µM and 2.88 µM. In [10], the TGI is 3.01 µM and 4.26 µM.
In the case of `CC(C)(C)c1ccc(OCCCCCCN2CCNCC2)cc1`, the GI50 is 2.33 µM in [2]; 3.22 µM in assay [3]; 1.83 µM in [4]; 15.3 µM in assay [6]; 14.6 µM in assay [7]; 13.9 µM in [9]. In assay [10], the GI50 is 2.5 µM. Also, the TGI in assay [2] turned out to be 5.77 µM; in assay [3], 13.5 µM; in [4] it was 3.66 µM; in assay [6] it was 34.3 µM; in assay [7], 33.5 µM; in [9] it was 27.8 µM. In assay [10], this compound gave a TGI of 6.46 µM.
For `O=C(N/N=C/c1ccc2c(c1)CCC2)c1ccccc1O`, the TGI in assay [2] was 70.5 µM; in [3], over 100 µM; in assay [4], over 100 µM; in assay [6], 77.7 µM; in assay [7], 71.9 µM; in [9], 51.1 µM. Moreover, the TGI in assay [10] was over 100 µM.
For `Cc1c(C#N)c(=O)[nH]c(=O)n1CCN1CCN(C(=O)NCCCCCCNC(=O)N2CCN(CCn3c(C)c(C#N)c(=O)[nH]c3=O)CC2)CC1`, the TGI in [1], in assay [2], in assay [3], in [4], in assay [5] and in assay [7] was over 100 µM throughout. Besides, the TGI in [8], in assay [9] and in assay [10] was over 100 µM each time.
For `CC(C)CC(CC1=CCC2CC1C2(C)C)C1=C(O)C(C)(C)C(=O)C(C)(C)C1=O` (stereo not given), the GI50 was 0.266 µM in assay [2]; 0.404 µM in assay [3]; 0.336 µM in assay [4]; 0.42 µM in [6]; 0.379 µM in [7]; 0.424 µM in assay [9]. For the same compound, in assay [10], the GI50 was 0.227 µM. The TGI was 1.17 µM in [2]; 5.86 µM in [3]; 10.7 µM in assay [4]; 9.46 µM in [6]; over 100 µM in assay [7]; 98.9 µM in assay [9]. Also, the TGI in assay [10] worked out at 0.558 µM.
`COc1ccc(-c2cc(-c3ccccc3)nc(SCCCC(=O)NO)n2)cc1`: the GI50 in assay [2] is 0.756 µM; in [3], 0.894 µM; in assay [4], 0.24 µM; in [6], 1.68 µM; in [7], 0.389 µM; in assay [9], 0.369 µM. The GI50 in assay [10] is 0.454 µM. In addition, the TGI in assay [2] was found to be 2.53 µM; in assay [3], 3.92 µM; in assay [4], 1.95 µM; in assay [6], 6.08 µM; in [7] it was 19.8 µM; in assay [9] it was 9.63 µM. In assay [10], this compound yielded a TGI of over 22.9 µM.
`N=C(N)c1ccc(N2CCCN(c3ccc(C(=N)N)cc3)CC2)cc1`: the GI50 was 89 µM in assay [2]; over 100 µM in assay [3]; 56.1 µM in assay [4]; 84.7 µM in assay [6]; 49.6 µM in assay [7]; 58.2 µM in assay [9]. Moreover, the GI50 in [10] was over 100 µM. Also, the TGI in assay [2], in assay [3], in assay [4], in assay [6], in [7] and in assay [9] was over 100 µM in each case. For the same compound, the TGI in assay [10] was over 100 µM.
